Data on 3 molecules can be found in ChEMBL document CHEMBL1149122 (J Med Chem, 2004).

The target in test [1] is T1, Amine oxidase [flavin-containing] B (Homo sapiens, UniProt P27338).
T1 sequence (P27338 whole entry): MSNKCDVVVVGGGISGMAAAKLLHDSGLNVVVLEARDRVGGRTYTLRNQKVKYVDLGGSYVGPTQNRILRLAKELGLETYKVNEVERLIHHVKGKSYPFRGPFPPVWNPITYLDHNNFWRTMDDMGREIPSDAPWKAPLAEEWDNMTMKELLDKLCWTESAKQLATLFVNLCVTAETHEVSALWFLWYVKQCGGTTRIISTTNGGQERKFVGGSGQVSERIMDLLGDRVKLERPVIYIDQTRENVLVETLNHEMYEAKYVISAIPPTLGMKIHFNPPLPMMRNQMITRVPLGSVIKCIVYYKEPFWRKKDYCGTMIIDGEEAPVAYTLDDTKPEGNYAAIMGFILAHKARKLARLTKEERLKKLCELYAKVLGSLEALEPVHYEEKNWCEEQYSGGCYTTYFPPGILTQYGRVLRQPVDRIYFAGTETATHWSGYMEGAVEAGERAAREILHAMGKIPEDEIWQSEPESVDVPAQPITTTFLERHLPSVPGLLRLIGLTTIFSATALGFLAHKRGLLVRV
The experiment in a line: Binding affinity towards monoamine oxidase B activity was measured using a benzylamine assay.

For test [2], the target named is T2, Amine oxidase [flavin-containing] A (Homo sapiens, UniProt P21397).
T2 sequence (P21397 whole entry): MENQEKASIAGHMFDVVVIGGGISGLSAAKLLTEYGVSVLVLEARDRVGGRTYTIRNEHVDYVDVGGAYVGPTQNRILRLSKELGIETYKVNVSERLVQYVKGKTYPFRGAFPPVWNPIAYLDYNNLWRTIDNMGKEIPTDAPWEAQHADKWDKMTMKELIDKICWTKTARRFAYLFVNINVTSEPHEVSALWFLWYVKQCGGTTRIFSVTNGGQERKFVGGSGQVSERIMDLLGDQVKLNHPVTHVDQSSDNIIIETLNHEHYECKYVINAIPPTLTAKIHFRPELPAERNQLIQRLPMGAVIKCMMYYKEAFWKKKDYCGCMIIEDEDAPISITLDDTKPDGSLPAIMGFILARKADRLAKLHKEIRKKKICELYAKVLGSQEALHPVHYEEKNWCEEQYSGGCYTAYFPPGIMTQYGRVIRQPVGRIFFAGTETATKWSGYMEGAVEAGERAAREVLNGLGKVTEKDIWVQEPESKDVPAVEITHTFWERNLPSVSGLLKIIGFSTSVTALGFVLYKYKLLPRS
The experiment in a line: Binding affinity towards monoamine oxidase A activity was measured using a kynuramine assay.

Test [3] addresses T3, Amine oxidase [flavin-containing] A (Rattus norvegicus, UniProt P21396).
T3 sequence (P21396 whole entry): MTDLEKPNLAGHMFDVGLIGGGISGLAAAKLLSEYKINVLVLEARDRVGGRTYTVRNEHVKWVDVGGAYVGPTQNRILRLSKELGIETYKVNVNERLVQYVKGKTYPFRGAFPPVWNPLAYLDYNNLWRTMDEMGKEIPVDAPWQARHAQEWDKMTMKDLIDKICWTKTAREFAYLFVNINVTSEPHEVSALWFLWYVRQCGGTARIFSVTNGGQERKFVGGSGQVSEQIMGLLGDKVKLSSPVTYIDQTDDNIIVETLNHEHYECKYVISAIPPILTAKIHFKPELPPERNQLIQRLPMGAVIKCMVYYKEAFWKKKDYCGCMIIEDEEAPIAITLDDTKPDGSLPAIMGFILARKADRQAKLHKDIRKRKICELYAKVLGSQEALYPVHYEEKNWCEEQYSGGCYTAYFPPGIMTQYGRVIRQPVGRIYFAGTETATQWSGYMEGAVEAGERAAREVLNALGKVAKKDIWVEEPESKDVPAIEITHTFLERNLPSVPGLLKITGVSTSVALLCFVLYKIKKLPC
The experiment in a line: Inhibitory concentration towards monoamine oxidase A in rat brain was measured. Format: tissue-based.

Test [4] deals with T4, Amine oxidase [flavin-containing] B (Rattus norvegicus, UniProt P19643).
T4 sequence (P19643 whole entry): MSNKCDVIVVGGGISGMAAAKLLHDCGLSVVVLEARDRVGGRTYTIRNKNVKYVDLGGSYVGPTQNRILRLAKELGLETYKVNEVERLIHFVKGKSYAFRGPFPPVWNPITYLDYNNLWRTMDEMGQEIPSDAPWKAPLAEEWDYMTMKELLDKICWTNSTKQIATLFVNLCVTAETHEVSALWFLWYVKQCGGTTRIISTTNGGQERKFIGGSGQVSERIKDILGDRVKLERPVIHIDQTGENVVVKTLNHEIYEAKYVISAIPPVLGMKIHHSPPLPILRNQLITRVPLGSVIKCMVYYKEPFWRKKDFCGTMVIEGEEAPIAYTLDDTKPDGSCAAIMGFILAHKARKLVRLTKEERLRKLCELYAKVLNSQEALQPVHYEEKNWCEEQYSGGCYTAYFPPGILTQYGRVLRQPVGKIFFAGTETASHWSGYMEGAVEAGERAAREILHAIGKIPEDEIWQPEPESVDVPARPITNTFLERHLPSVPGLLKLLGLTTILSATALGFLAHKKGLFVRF
The experiment in a line: Inhibitory concentration towards monoamine oxidase B in rat brain was measured. Format: tissue-based.

As to `C#CCN[C@@H]1CCc2ccc(O)cc21`, the values for the Ki in test [1] and in test [2] were 17 µM and 1.9 µM, respectively.
In the case of `C#CCN[C@@H]1CCc2ccc(OC(=O)N(C)CC)cc21` [LADOSTIGIL], the Ki in test [1] is 213 µM; in test [2], 227 µM. The figures for the IC50 in test [3] and in test [4] were 85 µM and 120 µM, respectively.
Regarding `C#CCN(C)[C@@H]1CCc2ccccc21`, the Ki in test [1] was found to be 0.6 µM; in test [2], 4.9 µM.

Usually Ki stands for a measure of affinity in units of concentration, obtained from inhibition or displacement. Higher therefore signals lower affinity. The IC50 is the concentration at which inhibition is half-maximal.
